Series [1] can be described thus: Oral bioavailability in CD1 mouse at 10 mg/kg. The series is classed as ADME, organism-based. The following applies: in vivo.
Series [2] in a line: Half life in iv dosed CD1 mouse. It is filed as ADME, organism-based. As to conditions: in vivo.
Series [3] in a line: AUC in CD1 mouse at 10 mg/kg, po. The series is classed as ADME, organism-based. The arrangement: dose 10 mg/kg, route oral. The following applies: plasma.
Series [4] is described as follows: Cmax in CD1 mouse at 10 mg/kg, po. As to conditions: in vivo. The series is classed as ADME, organism-based. Further details: dose 10 mg/kg, route oral.
A short description of series [5]: Terminal phase volume of distribution in CD1 mouse. It is filed as ADME, organism-based. The following applies: in vivo, read-out: Vbeta.
Series [6] is described as follows: Clearance in CD1 mouse. The series is classed as ADME, organism-based. As to conditions: in vivo.
Series [7] is described as follows: Oral bioavailability in Sprague-Dawley rat at 5 mg/kg. It is filed as ADME, organism-based. As to conditions: in vivo.
Series [8] can be described thus: Half life in iv dosed Sprague-Dawley rat. It is filed as ADME, organism-based. As to conditions: in vivo.
Series [9] in a line: AUC in Sprague-Dawley rat at 5 mg/kg, po. As to conditions: plasma. The series is classed as ADME, organism-based. The arrangement: dose 5 mg/kg, route oral.
Series [10] in a line: Cmax in Sprague-Dawley rat at 5 mg/kg, po. It is filed as ADME, organism-based. Further details: dose 5 mg/kg, route oral. The following applies: in vivo.
A short description of series [11]: Terminal phase volume of distribution in Sprague-Dawley rat. It is filed as ADME, organism-based. As to conditions: in vivo, read-out: Vbeta.
The nature of series [12]: Clearance in Sprague-Dawley rat. The series is classed as ADME, organism-based. The following applies: in vivo.
Series [13] is described as follows: Oral bioavailability in Beagle dog at […]. It is filed as ADME, organism-based, Canis lupus familiaris. As to conditions: in vivo.
The nature of series [14]: Half life in iv dosed Beagle dog. It is filed as ADME, organism-based, Canis lupus familiaris. The following applies: in vivo.
The nature of series [15]: AUC in Beagle dog at […], po. Further details: dose 2.5 mg/kg, route oral. The following applies: plasma. The series is classed as ADME, organism-based, Canis lupus familiaris.
Series [16] can be described thus: Cmax in Beagle dog at […], po. It is filed as ADME, organism-based, Canis lupus familiaris. The arrangement: dose 2.5 mg/kg, route oral. As to conditions: in vivo.
A short description of series [17]: Terminal phase volume of distribution in Beagle dog. The series is classed as ADME, organism-based, Canis lupus familiaris. The following applies: in vivo, read-out: Vbeta.
A short description of series [18]: Clearance in Beagle dog. The series is classed as ADME, organism-based, Canis lupus familiaris. The following applies: in vivo.
Series [19] is described as follows: Oral bioavailability in cynomolgus monkey at […]. The series is classed as ADME, organism-based, Macaca fascicularis. The following applies: in vivo.
Series [20] is described as follows: Half life in iv dosed cynomolgus monkey. The series is classed as ADME, organism-based, Macaca fascicularis. The following applies: in vivo.
Series [21] in a line: AUC in cynomolgus monkey at […], po. It is filed as ADME, organism-based, Macaca fascicularis. Further details: dose 2.5 mg/kg, route oral. As to conditions: plasma.
The nature of series [22]: Cmax in cynomolgus monkey at […], po. As to conditions: in vivo. It is filed as ADME, organism-based, Macaca fascicularis. The arrangement: dose 2.5 mg/kg, route oral.
Series [23] in a line: Terminal phase volume of distribution in cynomolgus monkey. The series is classed as ADME, organism-based, Macaca fascicularis. As to conditions: in vivo, read-out: Vbeta.
Series [24] in a line: Clearance in cynomolgus monkey. It is filed as ADME, organism-based, Macaca fascicularis. As to conditions: in vivo.
A short description of series [25]: AUC in CD1 mouse plasma at 30 mg/kg, po. The series is classed as ADME, organism-based. Further details: dose 30 mg/kg, route oral.
Series [26] in a line: AUC in CD1 mouse brain at 30 mg/kg, po. It is filed as ADME, organism-based. The arrangement: dose 30 mg/kg, route oral.
Series [27] can be described thus: Drug level in mouse B16F10 transplanted C57BL/6 mouse plasma at 25 mg/kg/day, po administered from day 6 to 10 post transplantation measured after 6 hrs of final dose. The series is classed as ADME, organism-based, C57BL6. Further details: route oral.
Series [28] is described as follows: Drug level in mouse B16F10 cells transplanted in C57BL/6 mouse at 25 mg/kg/day, po administered from day 6 to 10 post transplantation measured after 6 hrs of final dose. It is filed as ADME, organism-based, C57BL6, B16-F10. The arrangement: route oral. The following applies: B16F10 tumour (neoplasm).
The nature of series [29]: Drug level in mouse B16F10 transplanted TMZ-treated C57BL/6 mouse plasma […] at 25 mg/kg/day, po administered from day 6 to 10 post transplantation measured after 6 hrs of final dose in presence of TMZ. Further details: route oral. It is filed as ADME, organism-based, C57BL6.
Series [30] is described as follows: Ratio of drug level in plasma to brain of CD1 mouse.

The results in this text go back to ChEMBL document CHEMBL1156198 (J Med Chem, 2010).

As for `NC(=O)c1cccc2[nH]c(-c3ccc([C@@H]4CCCN4)cc3F)nc12`, the bioavailability (commonly dose-corrected exposure relative to a reference, in per cent) in [1] turned out to be 36%; in series [7] it was 55%; in series [13], 72%; in [19] it was 34%. Moreover, the half-life (commonly the time needed for the level to fall by half in the phase considered) was 0.8 h in series [2], 1.9 h in [8], 1.7 h in series [14] and 1.8 h in series [20]. Also, the AUC – broadly, the area under the concentration-time curve, a measure of exposure – came to 1200 ng·h/mL in series [3]; 1700 ng·h/mL in series [9]; 1100 ng·h/mL in [15]; 200 ng·h/mL in series [21]; 9800 ng·h/mL in series [25]; 4200 ng·h/mL in series [26]. Also, the Cmax (in general, the highest concentration seen after dosing) in [4] worked out at 600 ng/mL; in series [10] it was 300 ng/mL; in series [16], 500 ng/mL; in series [22], 30 ng/mL. For the same compound, the Vd is 3.3 L/kg in series [5], 4.1 L/kg in [11], 3.6 L/kg in series [17] and 9.2 L/kg in series [23]. For the same compound, the clearance (commonly a measure of how efficiently the substance is removed, as volume per time) in series [6] was 48.3 mL/min/kg; in series [12], 28.3 mL/min/kg; in series [18], 28.3 mL/min/kg; in [24], 68.3 mL/min/kg. Also, the concentration at 6 h in series [27] was 220 ng/mL; in [28], 17200 ng/mL; in series [29] it was 380 ng/mL. Also, the Kp (in general, the ratio of the level in a tissue or fluid to that in plasma or blood) in [30] is 2.

As for `NC(=O)c1cccc2[nH]c(-c3ccc([C@@H]4CCCCN4)cc3F)nc12`, the bioavailability in series [1] was 63%; in series [7] it was 80%; in [13], 39%; in [19], 61%. Besides, the half-life in series [2] is 1.3 h; in series [8], 4.5 h; in [14], 2 h; in [20], 5 h. Besides, the AUC came out at 1700 ng·h/mL in series [3]; 1800 ng·h/mL in series [9]; 300 ng·h/mL in [15]; 750 ng·h/mL in series [21]; 9900 ng·h/mL in series [25]; 9100 ng·h/mL in [26]. Moreover, the Cmax in [4] was found to be 500 ng/mL; in [10] it was 200 ng/mL; in [16] it was 100 ng/mL; in series [22], 100 ng/mL. In addition, the Vd in series [5] came to 6.6 L/kg; in [11], 14 L/kg; in [17], 9.3 L/kg; in [23] it was 15 L/kg. Moreover, the clearance in series [6] was 60 mL/min/kg; in series [12] it was 38.3 mL/min/kg; in series [18], 56.7 mL/min/kg; in series [24], 36.7 mL/min/kg.

In series [1], `NC(=O)c1cccc2[nH]c(-c3ccc([C@H]4CCCCN4)cc3F)nc12` came in with a bioavailability of 100%. Also, the half-life in series [2] was 1.4 h. Besides, the figures for the AUC in [3], in series [25] and in [26] were 1600 ng·h/mL, 5800 ng·h/mL and 6300 ng·h/mL, respectively. The compound also yielded a Cmax in series [4] of 300 ng/mL. The Vd in [5] turned out to be 15 L/kg. Also, the clearance in series [6] was 122 mL/min/kg.

In turn, `NC(=O)c1cccc2[nH]c(-c3ccc([C@H]4CCCN4)cc3F)nc12` came in with a bioavailability in series [1] of 36%. This compound also gave a half-life in series [2] of 0.9 h. For the same compound, the area under the curve (AUC) was found to be 1000 ng·h/mL in series [3], 4200 ng·h/mL in series [25] and 1800 ng·h/mL in series [26]. In series [4], this compound yielded a Cmax of 500 ng/mL. In addition, the Vd in series [5] amounted to 4.6 L/kg. Further, in series [6], the clearance is 60 mL/min/kg. Also, in series [30], the Kp stood at 2.
